Results: the NIST ThermoML archive (doi:10.1021/je500672d)
± gives the expanded uncertainty stated by the source.

Details: 298.15 K; 101.33 kPa; Liquid; Vibrating tube method

| Compound | mass density [kg/m3] |
| --- | --- |
| COP(=O)([O-])OC.Cn1cc[n+](C)c1 [1,3-dimethylimidazolium dimethylphosphate] | 1257.8 ± 1.4 |
| CO [methanol] | 786.4 ± 0.4 |
| COC(C)=O [methyl ethanoate] | 927.7 ± 0.5 |
